Reference: patent US6015823A, “4-Cyclohexylphenyl-oxazolines and their use for controlling animal pests” (Bayer Aktiengesellschaft, priority 1996, dated 2000)
Where two headings read alike, the source gives them in different places.

How the values were obtained:
[1] = logp: n-octanol/water partition coefficient by reversed phase HPLC; format: physicochemical; settings: h2o/ch3cn, read-out: logp (logarithm to base ten of the n-octanol/water partition coefficient)
Source text: *) logp: Logarithm to base ten of the n-octanol/water partition coefficient, determined by reversed phase HPLC analysis using H2 O/CH3 CN.
*^) logp: Logarithm to base ten of the noctanol/water partition
coefficient, determined by reversed phase HPLC analysis using H2

[2] = test system: common spider mite (Tetranychus urticae); test: Tetranychus test (OP resistant/dip treatment); format: in vivo; settings: Tetranychus urticae, 312 h, read-out: destruction in %
Method: Tetranychus test (OP resistant/dip treatment)
Solvent: 3 parts by weight of dimethylformamide
(§1) Emulsifier: 1 part by weight of alkylaryl polyglycol ether
To produce a suitable preparation of active compound, 1 part by weight of active compound is mixed with the stated amount of solvent and the stated amount of emulsifier, and the concentrate is diluted with emulsifier-containing water to the desired concentrations.
Bean plants (Phaseolus vulgaris) which are heavily infested by all stages of the common spider mite (Tetranychus urticae) are dipped into the active compound preparation of the desired concentration.
After the desired period of time, the activity in % is determined. 100% means that all the spider mites have been killed; 0% means that none of the spider mites have been killed.

[3] = test system: mustard beetle larvae (Phaedon cochleariae); test: Phaedon larvae test; format: in vivo; settings: Phaedon cochleariae, 168 h; active compound concentration 0.01%, after 7 days; read-out: destruction in %
Method: (§2) Solvent: 7 parts by weight of dimethylformamide
as §1
(§3) To produce a suitable preparation of active compound, I part by weight of active compound is mixed with the stated amount of solvent and the stated amount of emulsifier, and the concentrate is diluted with water to the desired concentration.
Cabbage leaves (Brassica oleracea) are treated by being dipped into the active compound preparation of the desired concentration and are infested with mustard beetle larvae (Phaedon cochleariae), while the leaves are still moist.
After the desired period of time, the destruction in % is determined. 100% means that all the beetle larvae have been killed; 0% means that none of the beetle larvae have been killed.

[4] = test system: caterpillars of the owlet moth (Spodoptera frugiperda); test: Spodoptera frugiperda test; format: in vivo; settings: Spodoptera frugiperda, 168 h; active compound concentration 0.1%, after 7 days; read-out: destruction in %
Method: Spodoptera frugiperda test
as §2, §1, §3
Cabbage leaves (Brassica oleracea) are treated by being dipped into the active compound preparation of the desired concentration and are infested with caterpillars of the owlet moth (Spodoptera frugiperda), while the leaves are still moist.
After the desired period of time, the destruction in % is determined. 100% means that all the caterpillars have been killed; 0% means that none of the caterpillars have been killed.

[5] = A isomer (possible geometric isomer)
[6] = B isomer (possible geometric isomer)

chromatographic logP [1] | chromatographic logP [1, 5] | chromatographic logP [1, 6] | SMILES | other results
2.53 |  |  | OC1CCC(c2ccc(C3COC(c4c(F)cccc4F)=N3)cc2)CC1 (single isomer, unassigned) [Example 2, 2-(2,6-difluorophenyl)-4-[4-(4-hydroxycyclohexyl)phenyl]-1,3-oxazoline] | 
2.54 |  |  | O=C1CCC(c2ccc(C(CCl)NC(=O)c3c(F)cccc3F)cc2)CC1 (stereo not drawn) [2-(2,6-difluorobenzoylamido)-2-[4-(4-oxo-cyclohexyl)phenyl]-chloroethane] | 
 |  |  | CCCOc1ccc(-c2ccc(C3COC(c4c(F)cccc4F)=N3)cc2)cc1 (stereo not drawn) [(F), reference compound] | mortality at 0.0001 % [2]: 45%
2.57 |  |  | ON=C1CCC(c2ccc(C3COC(c4c(F)cccc4F)=N3)cc2)CC1 (stereo not drawn) [Example 3, 2-(2,6-difluorophenyl)-4-[4-(4-oximino-cyclohexyl)phenyl]-1,3-oxazoline] | 
2.74 |  |  | OC1CCC(c2ccc(C3COC(c4c(F)cccc4F)=N3)cc2)CC1 (stereo not drawn) [Example 7] | 
3.8 |  |  | COC1(OC)CCC(c2ccc(C3COC(c4c(F)cccc4F)=N3)cc2)CC1 (stereo not drawn) [Example 8] | mortality at 0.01 % [3]: 90%
3.46 |  |  | Fc1cccc(F)c1C1=NC(c2ccc(C3CCC4(CC3)OCCO4)cc2)CO1 (stereo not drawn) [Example 11] | 
9 |  |  | CCCCCCCCCCCCCCCC1COC2(CCC(c3ccc(C4COC(c5c(F)cccc5F)=N4)cc3)CC2)O1 (stereo not drawn) [Example 18] | 
 | 5.12 | 5.19 | CC1CC(C)(C)OC2(CCC(c3ccc(C4COC(c5c(F)cccc5F)=N4)cc3)CC2)O1 (stereo not drawn) [Example 26] | 
4.43 |  |  | CCC1COC2(CCC(c3ccc(C4COC(c5c(F)cccc5F)=N4)cc3)CC2)O1 (stereo not drawn) [Example 27] | 
4.52 |  |  | CCCC1COC2(CCC(c3ccc(C4COC(c5c(F)cccc5F)=N4)cc3)CC2)O1 (stereo not drawn) [Example 28] | 
 | 3.95 | 3.98 | CC1CCOC2(CCC(c3ccc(C4COC(c5c(F)cccc5F)=N4)cc3)CC2)O1 (stereo not drawn) [Example 29] | 
 | 5.35 | 5.4 | CCCCC1COC2(CCC(c3ccc(C4COC(c5c(F)cccc5F)=N4)cc3)CC2)O1 (stereo not drawn) [Example 30] | 
 | 4.52 | 4.84 | CC1CC(C)OC2(CCC(c3ccc(C4COC(c5c(F)cccc5F)=N4)cc3)CC2)O1 (stereo not drawn) [Example 31] | 
3.47 |  |  | Fc1cccc(F)c1C1=NC(c2ccc(C3CCC4(CC3)OCCCO4)cc2)CO1 (stereo not drawn) [Example 32] | 
4.5 |  |  | CC1(C)COC2(CCC(c3ccc(C4COC(c5c(F)cccc5F)=N4)cc3)CC2)OC1 (stereo not drawn) [Example 33] | 
 | 7.19 | 7.28 | CCCCCCCCC1COC2(CCC(c3ccc(C4COC(c5c(F)cccc5F)=N4)cc3)CC2)O1 (stereo not drawn) [Example 34] | 
4.95 |  |  | CCCCON=C1CCC(c2ccc(C3COC(c4c(F)cccc4F)=N3)cc2)CC1 (stereo not drawn) [Example 36] | 
5.46 |  |  | CCCC1(C)COC2(CCC(c3ccc(C4COC(c5c(F)cccc5F)=N4)cc3)CC2)OC1 (stereo not drawn) [Example 37] | 
5.4 |  |  | CCC1(CC)COC2(CCC(c3ccc(C4COC(c5c(F)cccc5F)=N4)cc3)CC2)OC1 (stereo not drawn) [Example 38] | 
 | 5.36 | 5.51 | Fc1cccc(F)c1C1=NC(c2ccc(C3CCC4(CC3)OCC(c3ccc(Br)cc3)O4)cc2)CO1 (stereo not drawn) [Example 39] | 

chromatographic logP [1] | chromatographic logP [1, 5] | chromatographic logP [1, 6] | SMILES | other results
5.11 |  |  | CC1(c2ccccc2)COC2(CCC(c3ccc(C4COC(c5c(F)cccc5F)=N4)cc3)CC2)OC1 (stereo not drawn) [Example 40] | 
 | 4.73 | 4.75 | Fc1cccc(F)c1C1=NC(c2ccc(C3CCC4(CC3)OCC(COc3ccccc3)O4)cc2)CO1 (stereo not drawn) [Example 41] | 
 | 5.44 | 5.48 | Cc1cc(C)cc(OCC2COC3(CCC(c4ccc(C5COC(c6c(F)cccc6F)=N5)cc4)CC3)O2)c1 (stereo not drawn) [Example 42] | 
 | 4.77 | 4.86 | Fc1cccc(F)c1C1=NC(c2ccc(C3CCC4(CC3)OCC(c3c(F)cccc3F)O4)cc2)CO1 (stereo not drawn) [Example 43] | 
4.61 |  |  | COc1ccc(C2COC3(CCC(c4ccc(C5COC(c6c(F)cccc6F)=N5)cc4)CC3)OC2)cc1 (stereo not drawn) [Example 44] | 
 | 5.96 | 6.2 | Fc1cccc(F)c1C1=NC(c2ccc(C3CCC4(CC3)OCC(Br)(c3ccc(Cl)cc3)O4)cc2)CO1 (stereo not drawn) [Example 45] | 
 | 5.1 | 5.16 | Fc1cccc(F)c1C1=NC(c2ccc(C3CCC4(CC3)OCC(COc3ccc(Cl)cc3)O4)cc2)CO1 (stereo not drawn) [Example 46] | 
6.15 |  |  | CC(C)C1(c2ccc(Cl)cc2)COC2(CCC(c3ccc(C4COC(c5c(F)cccc5F)=N4)cc3)CC2)OC1 (stereo not drawn) [Example 47] | 
4.21 |  |  | C=CCOCC1COC2(CCC(c3ccc(C4COC(c5c(F)cccc5F)=N4)cc3)CC2)O1 (stereo not drawn) [Example 48] | 
 | 3.57 | 3.6 | COCC1COC2(CCC(c3ccc(C4COC(c5c(F)cccc5F)=N4)cc3)CC2)O1 (stereo not drawn) [Example 49] | 
3.89 |  |  | CC1COC2(CCC(c3ccc(C4COC(c5c(F)cccc5F)=N4)cc3)CC2)O1 (stereo not drawn) [Example 50] | 
 | 4.97 | 5 | CCCCOCC1COC2(CCC(c3ccc(C4COC(c5c(F)cccc5F)=N4)cc3)CC2)O1 (stereo not drawn) [Example 51] | 
3.99 |  |  | CC1COC2(CCC(c3ccc(C4COC(c5c(F)cccc5F)=N4)cc3)CC2)OC1 (stereo not drawn) [Example 52] | 
 | 5.23 | 5.37 | CC=CC1OC2(CCC(c3ccc(C4COC(c5c(F)cccc5F)=N4)cc3)CC2)OC1C=CC (stereo not drawn) [Example 53] | 
 | 5.65 | 5.7 | C=CCCCCC1COC2(CCC(c3ccc(C4COC(c5c(F)cccc5F)=N4)cc3)CC2)O1 (stereo not drawn) [Example 54] | 
4.16 |  |  | C=CCON=C1CCC(c2ccc(C3COC(c4c(F)cccc4F)=N3)cc2)CC1 (stereo not drawn) [Example 55] | 
3.6 |  |  | CON=C1CCC(c2ccc(C3COC(c4c(F)cccc4F)=N3)cc2)CC1 (stereo not drawn) [Example 56] | 
3.09 |  |  | O=C1CCC(c2ccc(C3COC(c4c(F)cccc4Cl)=N3)cc2)CC1 (stereo not drawn) [Example 57] | 
 | 4.78 | 4.87 | Fc1cccc(F)c1C1=NC(c2ccc(C3CCC4(CC3)OCC(c3ccccc3)O4)cc2)CO1 (stereo not drawn) [Example 58] | 
5.14 |  |  | Fc1cccc(F)c1C1=NC(c2ccc(C3CCC4(CC3)OCC(c3c(F)cccc3Cl)O4)cc2)CO1 (stereo not drawn) [Example 59] | 
5.65 |  |  | Fc1cccc(F)c1C1=NC(c2ccc(C3CCC4(CC3)OCC(c3ccc(Cl)c(Cl)c3)O4)cc2)CO1 (stereo not drawn) [Example 60] | 

SMILES | chromatographic logP [1] | chromatographic logP [1, 5] | chromatographic logP [1, 6] | other results
CCC(C)ON=C1CCC(c2ccc(C3COC(c4c(F)cccc4F)=N3)cc2)CC1 (stereo not drawn) [Example 9] | 4.96 |  |  | mortality at 0.0001 % [2]: 98%; mortality at 0.01 % [3]: 100%; mortality at 0.1 % [4]: 100%
Fc1cccc(F)c1C1=NC(c2ccc(C3CCC4(CC3)OCC(c3cccc(Cl)c3)O4)cc2)CO1 (stereo not drawn) [Example 10] | 5.22 |  |  | mortality at 0.0001 % [2]: 98%; mortality at 0.01 % [3]: 100%; mortality at 0.1 % [4]: 100%
Fc1cccc(F)c1C1=NC(c2ccc(C3CCC(=NOCc4ccccc4)CC3)cc2)CO1 (stereo not drawn) [Example 12] | 4.7 |  |  | mortality at 0.0001 % [2]: 98%
CCCCOC1(OCCCC)CCC(c2ccc(C3COC(c4c(F)cccc4F)=N3)cc2)CC1 (stereo not drawn) [Example 19] |  | 6.77 | 6.86 | mortality at 0.0001 % [2]: 98%; mortality at 0.1 % [4]: 100%
Fc1cccc(F)c1C1=NC(c2ccc(C3CCC(=NOCc4ccc(C(F)(F)F)cc4Cl)CC3)cc2)CO1 (stereo not drawn) [Example 20] | 5.91 |  |  | mortality at 0.0001 % [2]: 98%; mortality at 0.01 % [3]: 100%
Fc1cccc(F)c1C1=NC(c2ccc(C3CCC(=NOCc4ccccc4Cl)CC3)cc2)CO1 (stereo not drawn) [Example 22] | 5.21 |  |  | mortality at 0.0001 % [2]: 98%
CC(C)(C)c1ccc(C2COC3(CCC(c4ccc(C5COC(c6c(F)cccc6F)=N5)cc4)CC3)O2)cc1 (stereo not drawn) [Example 23] | 6.16 |  |  | mortality at 0.0001 % [2]: 98%
Fc1cccc(F)c1C1=NC(c2ccc(C3CCC4(CC3)OCC(c3ccccc3Cl)O4)cc2)CO1 (stereo not drawn) [Example 24] | 5.6 |  |  | mortality at 0.0001 % [2]: 98%
Fc1cccc(F)c1C1=NC(c2ccc(C3CCC4(CC3)OCC(c3cccc(Cl)c3Cl)O4)cc2)CO1 (stereo not drawn) [Example 25] | 6.07 |  |  | mortality at 0.0001 % [2]: 98%
